Structures are written as SMILES. “And” between values parts separate entries of the source, which are not always exact repeats. Equal values may be shown once.

This experiment concerns the target T1, TBK1 (Mus musculus, UniProt Q9WUN2).
T1 sequence (Q9WUN2 1-729): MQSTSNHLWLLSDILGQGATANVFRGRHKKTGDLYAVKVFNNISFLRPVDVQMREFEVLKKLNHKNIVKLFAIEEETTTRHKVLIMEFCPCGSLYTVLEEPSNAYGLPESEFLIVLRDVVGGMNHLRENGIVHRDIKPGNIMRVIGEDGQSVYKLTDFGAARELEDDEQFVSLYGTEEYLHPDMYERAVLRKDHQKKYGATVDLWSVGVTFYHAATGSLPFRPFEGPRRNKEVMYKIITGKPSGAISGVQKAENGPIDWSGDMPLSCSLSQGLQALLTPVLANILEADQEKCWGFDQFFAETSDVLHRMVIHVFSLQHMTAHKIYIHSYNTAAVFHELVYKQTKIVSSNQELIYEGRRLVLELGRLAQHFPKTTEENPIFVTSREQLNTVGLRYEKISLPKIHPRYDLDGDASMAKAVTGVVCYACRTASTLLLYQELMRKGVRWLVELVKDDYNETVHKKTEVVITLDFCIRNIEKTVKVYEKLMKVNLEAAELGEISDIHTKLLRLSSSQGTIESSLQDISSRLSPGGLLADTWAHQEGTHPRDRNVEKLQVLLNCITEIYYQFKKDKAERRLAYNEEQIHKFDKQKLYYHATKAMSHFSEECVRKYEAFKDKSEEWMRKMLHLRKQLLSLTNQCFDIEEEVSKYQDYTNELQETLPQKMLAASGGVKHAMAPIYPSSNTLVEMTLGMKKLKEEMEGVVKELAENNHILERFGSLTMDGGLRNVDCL
The experiment in a line: 3T3-L1 adipocytes transfected with TBK1 plasmid (western blotting, immunofluorescence). On the set-up: host or cells: differentiated 3T3-L1 adipocytes (Lipofectamine 2000); TBK1 (western blotting, Figure 8a) / p-TBK1 (western blotting, Figure 8b) / p-AMPKα (western blotting, Figure 8c) / UCP1 (western blotting, Figure 8d): scale not given here. The note with it: for Mean Intensity: 2μg TBK1 + 10μM BJ, individual replicates. It counts as cell-based, Murine. The procedure:
[…] The 3T3-L1 adipocytes were washed with PBS for 3 times, fixed with 4% paraformaldehyde solution for 30 min, and then washed again for 3 times. […] The cells were then incubated overnight at 4 °C with the appropriate primary antibodies (1:100 dilution). The next day, the 3T3-L1 adipocytes were washed and incubated at room temperature with goat anti-rabbit secondary antibody or goat anti-mouse secondary antibody (1:1000 dilution) for 2 h and washed with PBS for 3 times. The nuclei were stained with DAPI. […] Fluorescence images were taken using a laser confocal microscope (SP8, Leica, Germany). At least four images per section were acquired for quantification, and the mean intensity were evaluated using ImageJ. The adipose tissue or 3T3-L1 adipocytes were homogenized by ultrasound in an ice-cold RIPA lysis buffer containing 1% PMSF and centrifuged at 12,000 × g at 4°C for 15 min to collect the supernatant. The BCA protein assay kit (Beyotime, Shanghai, China) was used to detect the total protein concentration. Proteins (20-30 μg) of the sample were separated by 10% SDS-PAGE gel and transferred onto polyvinylidene difluoride (PVDF) membranes. Then the PVDF membranes were blocked in 5% skim milk powder in TBS containing 1% Tween-20 (TBST) for 2 h at room temperature and washed with TBST for 3 times. […] After washing, the membranes were incubated with horseradish peroxidase-conjugated secondary antibodies (in 5% skim milk powder) for 1 h at room temperature. Finally, the membranes were treated with enhanced chemiluminescence agents (Tanon, Shanghai, China) and the signals were monitored using the Tanon 5200 multi chemiluminescent imaging system (Tanon, Shanghai, China).

The mark [1] stands for this setting: 3T3-L1 adipocytes transfected with TBK1 plasmid, 10 μM BJ, vs TBK1 transfection.

As to `CC(C)Cc1ccc(C(C)C(=O)[O-])cc1.COc1ccc2cc3[n+](cc2c1OC)CCc1cc2c(cc1-3)OCO2.O.O.O.O` [BJ, berberine-ibuprofen], the “TBK1 (western blotting, Figure 8a)” value (2μg TBK1+10μM BJ) was 0.5408 and 0.448 and 0.5761; the “TBK1 (western blotting, Figure 8a)” value (10μM BJ) was 0.38 and 0.387 and 0.3646. The “UCP1 (western blotting, Figure 8d)” value runs as follows: (2μg TBK1+10μM BJ) 0.7389 and 0.5561 and 0.5877; (10μM BJ) 0.5655 and 0.6018 and 0.6331. Also, the “p-AMPKα (western blotting, Figure 8c)” value (2μg TBK1+10μM BJ) was 0.3928 and 0.3723 and 0.348; the “p-AMPKα (western blotting, Figure 8c)” value (10μM BJ) is 0.4524 and 0.4108 and 0.3523. Further, the “p-TBK1 (western blotting, Figure 8b)” value (2μg TBK1+10μM BJ) is 0.5922 and 0.4 and 0.4766; the “p-TBK1 (western blotting, Figure 8b)” value (10μM BJ) is 0.5028 and 0.4045 and 0.6995. Moreover, the “Phosphorylation of TBK1 at Ser172” value (3T3-L1 adipocytes transfected with TBK1 plasmid, 10 μM BJ) is given as “increased the phosphorylation of TBK1 at Ser172”. Besides, the “Phosphorylation of AMPKα Thr172 and UCP1 protein levels” value under setting [1] is “increased the phosphorylation of AMPKα Thr172 and increased the UCP1 protein levels”. Moreover, the TBK1 protein levels entry under setting [1] is reported as “markedly reduced the TBK1 protein levels”. Also, the “Mean Intensity” value is, setting by setting: (Figure S11c) 20.873 A.U. and 18.04 A.U. and 17.203 A.U. and 19.263 A.U. and 18.463 A.U. and 18.776 A.U. and 23.056 A.U. and 11.015 A.U. and 23.907 A.U. and 21.41 A.U. and 21.836 A.U. and 20.009 A.U; (Figure S11g) 11.659 A.U. and 7.08 A.U. and 13.692 A.U. and 12.377 A.U. and 10.165 A.U. and 17.942 A.U. and 13.51 A.U. and 14.616 A.U. and 14.87 A.U. and 10.529 A.U. and 9.155 A.U. and 10.462 A.U; (Figure S11d) 20.305 A.U. and 17.417 A.U. and 18.699 A.U. and 21.221 A.U. and 16.857 A.U. and 15.382 A.U. and 18.398 A.U. and 14.495 A.U. and 16.691 A.U. and 21.635 A.U. and 11.895 A.U. and 12.802 A.U; (sheet Figure S11h) 18.036 A.U. and 17.064 A.U. and 12.941 A.U. and 17.572 A.U. and 15.135 A.U. and 12.981 A.U. and 16.45 A.U. and 12.776 A.U. and 13.679 A.U. and 13.503 A.U. and 12.749 A.U. and 17.882 A.U.

The values are drawn from publication PMC9374667 (Communications Biology, 2022).
